Measurements published in patent US20100048545A1, “Compounds and Compositions for Use in the Prevention and Treatment of Disorders of Fat Metabolism and Obesity” (INNODIA INC., priority 2006, published 2010).
“Also recorded” adds a separate entry of the source. Where two headings read alike, the source gives them in different places.

Experiments:
[1] = system: diet induced obese (DIO) animals; assay: Fixed dose of 4-hydroxyisoleucine in diet induced obese (DIO) animals, 21 days; assay type: in vivo, C57BL/6 mice; conditions: for Significance vs controls (P; body weight and body weight gain): 2 way ANOVA, Bonferroni
Experimental: C57BL/6 mice were fed a high fat diet (60% fat) for 6 weeks. […] This regime was continued for the remaining 21 day period and the dose given was not adjusted as the mice lost body weight. This method of dosing was designed to mimic the human situation when the quantity of drug given is not adjusted with progressive body weight loss. […] Statistical analysis of the data was performed using a 2 way ANOVA followed by Bonferroni comparisons. Food intake was measured daily and then combined over a 7 day period to calculate total consumption during each week of drug administration.

DIO-mice = conditions: for food consumption: 4-OH 50 or 100 mg/kg
Excerpt: The objective of this study was to evaluate the effect of chronic administration of 4-hydroxyisoleucine (4-OH, compound 14a) and Rosiglitazone, administered alone or in combination, on food consumption and body weight gain of DIO-mice. Both parameters were monitored for 1 week prior to the commencement of treatment, then for the 28 days of treatment and for an additional 7 days post-treatment.
A total of 72 animals were used in the study. The animals were distributed into 6 groups (5 treated, 1 control group, all on high fat diet). Each group was composed of 12 animals. The mice were randomized according to body weight and basal glycemia values following a 5±0.5 hour fasting period.
For the four weeks of treatment, the test articles were dissolved in reverse osmosis water. 4-Hydroxyisoleucine was aliquoted and kept at 4° C. (administration to groups 2, 3, and 6), while Rosiglitazone was freshly prepared daily and kept at 4° C. between the AM and PM administration to groups 4, 5, and 6. Control animals received reverse osmosis water twice daily (group 1). Mice from groups 2 and 3 were treated twice daily with 4-OH at 50 and 100 mg/kg, respectively. Animals from groups 4 and 5 received 1.5 and 5 mg/kg of Rosiglitazone, respectively. […] All groups were treated by oral gavage. Treatment commenced on Day 0 and ended on Day 28 (FIGS. 18A and 18C.
Food consumption was measured and averaged on a weekly basis beginning one week before the start of treatment as shown in FIGS. 18B and 18D as week −1. Similarly, food consumption was monitored for one week after treatment was stopped and is shown as week 5 in FIGS. 18B and 18D, In FIG. 18B, the food consumption over time for various treatment groups is illustrated by the bar graph.

dietary obese rat model = assay: Energy balance (VO2, respiratory quotient) in dietary obese rat model, prevention and reversal studies; assay type: in vivo, male Wistar rats
Experimental: The effect of 4-OH on energy balance was assessed in the dietary obese rat model. In these studies, male Wistar rats were administered a high fat/high sucrose diet (65.4% fat) and treated chronically with 4-OH. Each study consisted of 4 groups of animals. The groups studied were normal chow fed rats, rats fed a high fat/high sucrose diet and rats fed a high fat high sucrose diet and orally administered 4-OH at 100 mg/kg twice per day. These three groups had access to food ad libitum throughout the study. A fourth group fed the same number of Kcal (or similar energy intake) as the 4-OH group was also included to investigate drug effects that may occur in addition to changes in food intake. Two studies were performed: one to determine whether 4-OH could prevent the development of obesity (prevention study) and the other to determine whether 4-OH could reverse established obesity (reversal study). In the prevention study, male Wistar rats were administered the high fat/high sucrose diet for 5 weeks. During the first week of diet administration, the rats were adapted to receiving increasing doses of 4-OH. In the reversal of obesity study, the animals were first made obese by feeding the high fat/high sucrose diet for 28 days. This feeding regime continued for the duration of the study. After the period of obesity induction, the rats were also adapted to receiving increasing doses of 4-OH during a one week period. After the adaptation period, 4-OH was orally administered at a dose of 100 mg/kg twice per day for the following 4 week period in both treatment protocols. The ability of 4-OH to influence energy expenditure was determined by indirect calorimetry. On the 21st day of both the prevention and reversal studies, rats were placed into metabolic cages and energy expenditure was assessed by determining oxygen consumption. The effect of 4-OH on oxygen consumption during the day/night cycle on Day 21 of both the prevention and reversal of obesity studies is shown in FIGS. 27A and 27B. The respiratory quotient (RQ) was calculated in these studies from both the quantity of oxygen consumed and the quantity of carbon dioxide produced while the animals were present in the metabolic chambers. A RQ of 1 is indicative that the animals are burning pure carbohydrate as the energy source.

white adipocytes = assay: Release and uptake of free fatty acids by ex vivo cultured white adipocytes of treated rats; assay type: cell-based, Wistar rats
Excerpt: A total of 60 animals were used in the study. The animals were distributed into 6 groups; 1 group was fed standard chow, 1 group was fed a high fat, high sucrose (HFHS) diet with 28 days treatment, 1 untreated control group was fed a HFHS diet, and 1 untreated group was fed a HFHS diet, but with caloric intake restricted to match the caloric intake of the 4-OH treated animals (pair-fed animals). A fifth group was fed a high fat, high sucrose (HFHS) diet with 28 days treatment and received an acute oral administration of 4-OH just prior to experimentation on Day 29 of the study, and a sixth group was fed a HFHS diet, but with caloric intake restricted to match the caloric intake of the 4-OH treated animals receiving an acute oral administration of 4-OH on Day 29 of the study (pair-fed animals). Each group was composed of 10 animals. […] Body weights were measured once weekly from week 1 to week 4 of the study. The white adipose tissues of non-treated and treated rats were collected and cultured ex vivo. After 2 hours of culture, the relative release and uptake of free fatty acids by the adipocytes was measured in absence or presence of insulin, and standardized on the basis of DNA content of the cultures.

FABP4/ap2 = assay: RT-PCR gene expression in adipocytes of treated rats: FABP4/ap2; assay type: in vivo
Experimental: As the ex vivo studies on adipocytes indicated the lipolytic effect of drug was due to chronic exposure (see previous example), a role in gene regulation was assessed. RT-PCR was used to assess the expression of genes in the adipocytes from treated and control animals.

`C[C@@H]([C@H](C)O)[C@H](N)C(=O)O` [Compound 14a, (2S,3R,4S)-4-Hydroxyisoleucine] was tested, and the “Significance vs controls (P; body weight and body weight gain)” value ([1]; 75 mg/kg, Days 7 to 21) was “P < 0.05”, the “Significance vs controls (P; body weight and body weight gain)” value ([1]; 100 mg/kg, Days 7 to 21) was “P < 0.05” and the “Significance vs controls (P; body weight and body weight gain)” value ([1]; 125 mg/kg, Days 6 to 21) was “P < 0.05”. The body weight plateau ([1]; 150 mg/kg bid) was “approximately 30 gm”, the body weight reduction ([1]; 150 mg/kg bid) was 13 gm and the “visual appearance of animals” value ([1]; 150 mg/kg bid, day 21) was “visually indisingishable from lean mice of the same age”. The “Significance vs controls (P; body weight and body weight gain)” value ([1]; 150 mg/kg, Days 5 to 21) was “P < 0.05”, the body weight ([1]; 50, 75, 100, 125 and 150 mg/kg bid, oral, fixed dose, 21 days) was “dose-dependent reduction in body weight” and the “weight of fat tissues” value ([1]; end of treatment, epididymal fat (FIG. 17C)) was “concomitant reduction in the weight of fat tissues”. The food intake ([1]; highest doses, each of the 3 weeks, p<0.05) was “reduction in food intake at the highest doses administered”, the weight gain (DIO-mice; 4-OH 100 mg/kg twice daily) was “Moderation of weight gain was observed” and the food consumption (DIO-mice; first week of treatment, listed as 4-OH) was “food consumption decreased; also recorded: reduction in food consumption during the first week, but not after”. For the same compound, the food consumption (DIO-mice; remainder of the treatment phase) was “consumption returned to pre-treatment levels”, the weight gain (DIO-mice; Rosiglitazone 1.5 mg/kg with 4-OH 50 mg/kg, relative to the group treated with Rosiglitazone alone) was “able to modulate the weight gain induced by Rosiglitazone” and the “respiratory quotient, night phase” value (dietary obese rat model; 100 mg/kg twice per day) was “not reduced”. The “oxygen consumption per kg of body weight, night phase” value (dietary obese rat model; 100 mg/kg twice per day, Day 21) was “significantly enhanced relative to both the pair fed and control groups of animals”, the “oxygen consumption (VO2), light phase” value (dietary obese rat model; 100 mg/kg twice per day, Day 21, prevention and reversal studies) was “essentially identical” and the “respiratory quotient (fuel source), day phase” value (dietary obese rat model; 100 mg/kg twice per day, vs pair fed animals) was “burn proportionally more fat than pair fed animals”. The “VO2 expressed per rat” value (dietary obese rat model; 100 mg/kg twice per day, vs pair fed control groups) was “greater”, the “respiratory quotient (fuel source), day phase” value (dietary obese rat model; reversal study, vs pair fed and vehicle treated animals) was “proportionally more fat than both the pair fed and vehicle treated animals” and the “fatty acid uptake in presence of insulin” value (white adipocytes; 2 hours of culture) was “not significantly different across all groups”. The “basal fatty acid release” value (white adipocytes; 2 hours of culture, absence of insulin, vs pair-fed groups, p<0.01) was “significant increased basal fatty acid release”, the “insulin stimulated release of fatty acid” value (white adipocytes; vs pair fed groups and HFHS control, p<0.01) was “significantly increased” and the “expression of FABP4/ap2, increase” value (FABP4/ap2) was 1.3-1.4 times. The “Increase (x times) in expression of FABP4/ap2” value (FABP4/ap2; HFHS diet, treated for 4 weeks (28 days)) was 1.4 x times.
